Assay: Contingency table classification of C(t) acceptance range as surrogate for Cavg
Design: species or system hypogonadal men
Conditions: for Percent of Subjects: C(t) in range / Percent of Subjects: C(t) too high / Percent of Subjects: C(t) too low / Percent of Subjects: Cavg in range & C(t) in range / Percent of Subjects: Cavg in range & C(t) too high / Percent of Subjects: Cavg in range & C(t) too low / Percent of Subjects: Cavg too high & C(t) too high / Percent of Subjects: Cavg too low & C(t) in range / Percent of Subjects: Cavg too low & C(t) too low / Percent of Subjects: Cavg too high & C(t) in range: Cavg 300-1000 ng/dL; for Percent of subjects: Cavg in Range F & C(t) in Range F (total of too high and too low): Cavg 300-1000
Text: For the contingency table approach, the number and percentage of subjects that fell into each of the following seven categories were enumerated, for each of the candidate time points, and for each candidate target range for Cavg, and for each candidate acceptance range for C(t). • 1. Subjects with Cavg within range and with C(t) within range • 2. Subjects with Cavg below range and with C(t) below range • 3. Subjects with Cavg above range and with C(t) above range • 4. Subjects with Cavg within range but with C(t) below range • 5. Subjects with Cavg within range but with C(t) above range • 6. Subjects with Cavg below range, but with C(t) within range • 7. Subjects with Cavg above range, but with C(t) within range
If one defines a value as being “within range” as positive, and being “outside of range” as negative, then Group 1 is subjects that are “true positives”, Groups 2 and 3 are “true negatives”, groups 4 and 5 are “false negatives”, and groups 6 and 7 are “false positives”. Groups, 1, 2 and 3 represent successful predictions because C(t) is an appropriate surrogate for Cavg; Groups 4, 5, 6 and 7 are prediction failures because C(t) is an inaccurate surrogate for Cavg.
Correlations and contingency table calculations were performed using built-in functions in the Excel module of Microsoft Office 2003 (Redmond, Wash.). Graphs were produced using the built-in charting capabilities of Excel.

[1] = C(1.5), C(t) acceptance 130-1110
[2] = C(6) alternate, C(t) acceptance 250-1700
[3] = targeted Cavg 300-1000 ng/dL, 200 mg T BID as TU

SMILES: CCCCCCCCCCC(=O)O[C@H]1CC[C@H]2[C@@H]3CCC4=CC(=O)CC[C@]4(C)[C@H]3CC[C@]12C [TU, testosterone undecanoate]
- Percent of Subjects: C(t) in range (C(0), C(t) acceptance 80-1000): 87.8%
- Percent of Subjects: C(t) too high (C(0), C(t) acceptance 80-1000): C(t) too high 4.9%
- Percent of Subjects: C(t) too low (C(0), C(t) acceptance 80-1000): 7.3%
- Percent of Subjects: Cavg in range & C(t) in range (C(0), C(t) acceptance 80-1000): 75.6%
- Percent of Subjects: Cavg in range & C(t) too high (C(0), C(t) acceptance 80-1000): 2.4%
- Percent of Subjects: Cavg in range & C(t) too low (C(0), C(t) acceptance 80-1000): 2.4%
- Percent of Subjects: Cavg too high & C(t) too high (C(0), C(t) acceptance 80-1000): 2.4%
- Percent of Subjects: Cavg too low & C(t) in range (C(0), C(t) acceptance 80-1000): 7.3%
- Percent of Subjects: C(t) in range (C(1), C(t) acceptance 130-1000): 85.4%
- Percent of Subjects: C(t) too high (C(1), C(t) acceptance 130-1000): 2.4%
- Percent of Subjects: C(t) too low (C(1), C(t) acceptance 130-1000): 12.2%
- Percent of Subjects: Cavg in range & C(t) in range (C(1), C(t) acceptance 130-1000): 78.0%
- Percent of Subjects: Cavg in range & C(t) too high (C(1), C(t) acceptance 130-1000): 0.0%
- Percent of Subjects: Cavg in range & C(t) too low (C(1), C(t) acceptance 130-1000): 2.4%
- Percent of Subjects: Cavg too high & C(t) too high (C(1), C(t) acceptance 130-1000): 2.4%
- Percent of Subjects: Cavg too low & C(t) in range (C(1), C(t) acceptance 130-1000): 2.4%
- Percent of Subjects: Cavg too low & C(t) too low (C(1), C(t) acceptance 130-1000): 9.8%
- Percent of Subjects: C(t) in range [1]: 90.2%
- Percent of Subjects: C(t) too high [1]: 0.0%
- Percent of Subjects: C(t) too low [1]: 9.8%
- Percent of Subjects: Cavg in range & C(t) in range [1]: 80.5%
- Percent of Subjects: Cavg in range & C(t) too high [1]: 0.0%
- Percent of Subjects: Cavg in range & C(t) too low [1]: 0.0%
- Percent of Subjects: Cavg too high & C(t) in range [1]: 7.3%
- Percent of Subjects: Cavg too high & C(t) too high [1]: 0.0%
- Percent of Subjects: Cavg too low & C(t) in range [1]: 2.4%
- Percent of Subjects: Cavg too low & C(t) too low [1]: 9.8%
- Percent of Subjects: C(t) in range (C(2), C(t) acceptance 150-1200): 90.2%
- Percent of Subjects: C(t) too high (C(2), C(t) acceptance 150-1200): 0.0%
- Percent of Subjects: C(t) too low (C(2), C(t) acceptance 150-1200): 9.8%
- Percent of Subjects: Cavg in range & C(t) in range (C(2), C(t) acceptance 150-1200): 80.5%
- Percent of Subjects: Cavg in range & C(t) too high (C(2), C(t) acceptance 150-1200): 0.0%
- Percent of Subjects: Cavg in range & C(t) too low (C(2), C(t) acceptance 150-1200): 0.0%
- Percent of Subjects: Cavg too high & C(t) in range (C(2), C(t) acceptance 150-1200): 7.3%
- Percent of Subjects: Cavg too high & C(t) too high (C(2), C(t) acceptance 150-1200): 0.0%
- Percent of Subjects: Cavg too low & C(t) in range (C(2), C(t) acceptance 150-1200): 2.4%
- Percent of Subjects: Cavg too low & C(t) too low (C(2), C(t) acceptance 150-1200): 9.8%
- Percent of subjects: Cavg in Range F & C(t) in Range F (total of too high and too low) (C(3), C(t) acceptance 190-1450): 7.3%
- Percent of Subjects: C(t) in range (C(3), C(t) acceptance 190-1500): 90.2%
- Percent of Subjects: C(t) too high (C(3), C(t) acceptance 190-1500): 0.0%
- Percent of Subjects: C(t) too low (C(3), C(t) acceptance 190-1500): 9.8%
- Percent of Subjects: Cavg in range & C(t) in range (C(3), C(t) acceptance 190-1500): 78.0%
- Percent of Subjects: Cavg in range & C(t) too high (C(3), C(t) acceptance 190-1500): 0.0%
- Percent of Subjects: Cavg in range & C(t) too low (C(3), C(t) acceptance 190-1500): 2.4%
- Percent of Subjects: Cavg too high & C(t) in range (C(3), C(t) acceptance 190-1500): 7.3%
- Percent of Subjects: Cavg too high & C(t) too high (C(3), C(t) acceptance 190-1500): 0.0%
- Percent of Subjects: Cavg too low & C(t) in range (C(3), C(t) acceptance 190-1500): 4.9%
- Percent of Subjects: Cavg too low & C(t) too low (C(3), C(t) acceptance 190-1500): 7.3%
- Percent of Subjects: C(t) in range (C(4), C(t) acceptance 250-1700): 82.9%
- Percent of Subjects: C(t) too high (C(4), C(t) acceptance 250-1700): 2.4%
- Percent of Subjects: C(t) too low (C(4), C(t) acceptance 250-1700): 14.6%
- Percent of Subjects: Cavg in range & C(t) in range (C(4), C(t) acceptance 250-1700): 75.6%
- Percent of Subjects: Cavg in range & C(t) too high (C(4), C(t) acceptance 250-1700): 0.0%
- Percent of Subjects: Cavg in range & C(t) too low (C(4), C(t) acceptance 250-1700): 4.9%
- Percent of Subjects: Cavg too high & C(t) in range (C(4), C(t) acceptance 250-1700): 4.9%
- Percent of Subjects: Cavg too high & C(t) too high (C(4), C(t) acceptance 250-1700): 2.4%
- Percent of Subjects: Cavg too low & C(t) in range (C(4), C(t) acceptance 250-1700): 2.4%
- Percent of Subjects: Cavg too low & C(t) too low (C(4), C(t) acceptance 250-1700): 9.8%
- Percent of subjects: Cavg in Range F & C(t) in Range F (total of too high and too low) (C(4), C(t) acceptance 250-1700): 12.2%
- Percent of Subjects: C(t) in range (C(5), C(t) acceptance 250-1400): 82.9%
- Percent of Subjects: C(t) too high (C(5), C(t) acceptance 250-1400): 4.9%
- Percent of Subjects: C(t) too low (C(5), C(t) acceptance 250-1400): 12.2%
- Percent of Subjects: Cavg in range & C(t) in range (C(5), C(t) acceptance 250-1400): 75.6%
- Percent of Subjects: Cavg in range & C(t) too high (C(5), C(t) acceptance 250-1400): 2.4%
- Percent of Subjects: Cavg in range & C(t) too low (C(5), C(t) acceptance 250-1400): 2.4%
- Percent of Subjects: Cavg too high & C(t) in range (C(5), C(t) acceptance 250-1400): 4.9%
- Percent of Subjects: Cavg too high & C(t) too high (C(5), C(t) acceptance 250-1400): 2.4%
- Percent of Subjects: Cavg too low & C(t) in range (C(5), C(t) acceptance 250-1400): 2.4%
- Percent of Subjects: Cavg too low & C(t) too low (C(5), C(t) acceptance 250-1400): 9.8%
- Percent of subjects: Cavg in Range F & C(t) in Range F (total of too high and too low) (C(5), C(t) acceptance 250-1400): 12.2%
- Percent of Subjects: C(t) in range [2]: 90.2%
- Percent of Subjects: C(t) too high [2]: 0.0%
- Percent of Subjects: C(t) too low [2]: 9.8%
- Percent of Subjects: Cavg in range & C(t) in range [2]: 80.5%
- Percent of Subjects: Cavg in range & C(t) too high [2]: 0.0%
- Percent of Subjects: Cavg in range & C(t) too low [2]: 0.0%
- Percent of Subjects: Cavg too high & C(t) in range [2]: 7.3%
- Percent of Subjects: Cavg too high & C(t) too high [2]: 0.0%
- Percent of Subjects: Cavg too low & C(t) in range [2]: 2.4%
- Percent of Subjects: Cavg too low & C(t) too low [2]: 9.8%
- Percent of subjects: Cavg in Range F & C(t) in Range F (total of too high and too low) [2]: 9.8%
- Percent of Subjects: C(t) in range (C(6), C(t) acceptance 250-1100): 75.6%
- Percent of Subjects: C(t) too high (C(6), C(t) acceptance 250-1100): 14.6%
- Percent of Subjects: C(t) too low (C(6), C(t) acceptance 250-1100): 9.8%
- Percent of Subjects: Cavg in range & C(t) in range (C(6), C(t) acceptance 250-1100): 73.2%
- Percent of Subjects: Cavg in range & C(t) too high (C(6), C(t) acceptance 250-1100): 7.3%
- Percent of Subjects: Cavg in range & C(t) too low (C(6), C(t) acceptance 250-1100): 0.0%
- Percent of Subjects: Cavg too high & C(t) in range (C(6), C(t) acceptance 250-1100): 0.0%
- Percent of Subjects: Cavg too high & C(t) too high (C(6), C(t) acceptance 250-1100): 7.3%
- Percent of Subjects: Cavg too low & C(t) in range (C(6), C(t) acceptance 250-1100): 2.4%
- Percent of Subjects: Cavg too low & C(t) too low (C(6), C(t) acceptance 250-1100): 9.8%
- Percent of subjects: Cavg in Range F & C(t) in Range F (total of too high and too low) (C(6), C(t) acceptance 250-1100): 17.1%
- Percent of Subjects: C(t) in range (C(8), C(t) acceptance 200-1300): 95.1%
- Percent of Subjects: C(t) too high (C(8), C(t) acceptance 200-1300): 4.9%
- Percent of Subjects: C(t) too low (C(8), C(t) acceptance 200-1300): 0.0%
- Percent of Subjects: Cavg in range & C(t) in range (C(8), C(t) acceptance 200-1300): 80.5%
- Percent of Subjects: Cavg in range & C(t) too high (C(8), C(t) acceptance 200-1300): 0.0%
- Percent of Subjects: Cavg in range & C(t) too low (C(8), C(t) acceptance 200-1300): 0.0%
- Percent of Subjects: Cavg too high & C(t) in range (C(8), C(t) acceptance 200-1300): 2.4%
- Percent of Subjects: Cavg too high & C(t) too high (C(8), C(t) acceptance 200-1300): 4.9%
- Percent of Subjects: Cavg too low & C(t) in range (C(8), C(t) acceptance 200-1300): 12.2%
- Percent of Subjects: Cavg too low & C(t) too low (C(8), C(t) acceptance 200-1300): 0.0%
- Percent of subjects: Cavg in Range F & C(t) in Range F (total of too high and too low) (C(8), C(t) acceptance 200-1300): 4.9%
- Percent of Subjects: C(t) in range (C(12), C(t) acceptance 100-680): 92.7%
- Percent of Subjects: C(t) too high (C(12), C(t) acceptance 100-680): 4.9%
- Percent of Subjects: C(t) too low (C(12), C(t) acceptance 100-680): 2.4%
- Percent of Subjects: Cavg in range & C(t) in range (C(12), C(t) acceptance 100-680): 80.5%
- Percent of Subjects: Cavg in range & C(t) too high (C(12), C(t) acceptance 100-680): 0.0%
- Percent of Subjects: Cavg in range & C(t) too low (C(12), C(t) acceptance 100-680): 0.0%
- Percent of Subjects: Cavg too high & C(t) in range (C(12), C(t) acceptance 100-680): 2.4%
- Percent of Subjects: Cavg too high & C(t) too high (C(12), C(t) acceptance 100-680): 4.9%
- Percent of Subjects: Cavg too low & C(t) in range (C(12), C(t) acceptance 100-680): 9.8%
- Percent of Subjects: Cavg too low & C(t) too low (C(12), C(t) acceptance 100-680): 2.4%
- Percent of subjects: Cavg in Range F & C(t) in Range F (total of too high and too low) (C(12), C(t) acceptance 100-680): 7.3%
- Percent of Subjects: Cavg in range [3]: 80.5%
- Percent of Subjects: Cavg to low [3]: 12.2%
- Percent of Subjects: Cavg too high [3]: 7.3%
